Assay results: PMC7914897, “Cytotoxic Potential of a-Azepano- and 3-Amino-3,4-SeCo-Triterpenoids” (International Journal of Molecular Sciences, 2021)

What was measured:
UO-31 (Renal cancer) = assay: NCI-60 screen (SRB, 48 h); settings: Homo sapiens; for GI50: UO-31
EKVX (NSC lung cancer) = assay: NCI-60 screen (SRB, 48 h); settings: Homo sapiens
NSC lung cancer subpanel = assay: NCI-60 screen, subpanel; settings: Homo sapiens; for IC (TGI): 48 h, read-out: TGI MG_MID; for GI50: read-out: GI50 MG_MID; for CC50: read-out: LC50 MG_MID
[1] = tested on: MDA-MB-468 (Breast cancer); assay: cells; settings: Homo sapiens; for GI50: MDA-MB-468; for IC (TGI): MDA-MB-468, 48 h, read-out: TGI; for CC50: MDA-MB-468, read-out: LC50
MCF7 (Breast cancer) = assay: NCI-60 screen (SRB, 48 h); settings: Homo sapiens; for GI50: MCF7; for IC (TGI): MCF7, 48 h, read-out: TGI
KM12 (Colon cancer) = assay: NCI-60 screen (SRB, 48 h); settings: Homo sapiens; for GI50: KM12; for IC (TGI): KM12, 48 h, read-out: TGI
BT-549 (Breast cancer) = assay: NCI-60 screen (SRB, 48 h); assay type: cell-based; settings: Homo sapiens
RXF 393 (Renal cancer) = assay: NCI-60 screen (SRB, 48 h); settings: Homo sapiens
IGROV1 (Ovarian cancer) = assay: NCI-60 screen (SRB, 48 h); settings: Homo sapiens; for GI50: IGROV-1; for IC (TGI): IGROV-1, 48 h, read-out: TGI; for CC50: IGROV-1, read-out: LC50
Breast cancer subpanel = assay: NCI-60 screen, subpanel; settings: Homo sapiens; for IC (TGI): 48 h, read-out: TGI MG_MID; for GI50: read-out: GI50 MG_MID; for CC50: read-out: LC50 MG_MID
OVCAR-3 (Ovarian cancer) = assay: cells; settings: Homo sapiens; for GI50: OVCAR-3
Prostate cancer subpanel = assay: NCI-60 screen, subpanel; settings: Homo sapiens; for IC (TGI): 48 h, read-out: TGI MG_MID; for GI50: read-out: GI50 MG_MID
SNB-19 (CNS cancer) = assay: NCI-60 screen (SRB, 48 h); settings: Homo sapiens; for GI50: SNB-19; for IC (TGI): SNB-19, 48 h, read-out: TGI
MOLT-4 (Leukemia) = assay: NCI-60 screen (SRB, 48 h); settings: Homo sapiens; for GI50: MOLT-4
[2] = tested on: NCI-H460 (NSC lung cancer); assay: NCI-60 screen (SRB, 48 h); settings: Homo sapiens; for GI50: NCI-H460; for IC (TGI): NCI-H460, 48 h, read-out: TGI; for CC50: NCI-H460, read-out: LC50
SF-295 (CNS cancer) = assay: NCI-60 screen (SRB, 48 h); settings: Homo sapiens; for GI50: SF-295; for IC (TGI): SF-295, 48 h, read-out: TGI
SK-MEL-5 (Melanoma) = assay: NCI-60 screen (SRB, 48 h); settings: Homo sapiens; for GI50: SK-MEL-5; for IC (TGI): SK-MEL-5, 48 h, read-out: TGI; for CC50: SK-MEL-5, read-out: LC50
[3] = tested on: NCI-H322M (NSC lung cancer); assay: NCI-60 screen (SRB, 48 h); settings: Homo sapiens; for IC (TGI): 48 h, read-out: TGI
HL-60(TB) (Leukemia) = assay: NCI-60 screen (SRB, 48 h); assay type: cell-based; settings: Homo sapiens; for IC (TGI): 48 h
Colon Cancer subpanel = assay: NCI-60 screen, subpanel; settings: Homo sapiens; for IC (TGI): 48 h, read-out: TGI MG_MID; for GI50: read-out: GI50 MG_MID; for CC50: read-out: LC50 MG_MID
COLO 205 (Colon cancer) = assay: NCI-60 screen (SRB, 48 h); settings: Homo sapiens; for GI50: COLO 205; for IC (TGI): COLO 205, 48 h, read-out: TGI
CAKI-1 (Renal cancer) = assay: NCI-60 screen (SRB, 48 h); settings: Homo sapiens; for GI50: CAKI-1
Renal Cancer subpanel = assay: NCI-60 screen, subpanel; settings: Homo sapiens; for IC (TGI): 48 h, read-out: TGI MG_MID; for GI50: read-out: GI50 MG_MID; for CC50: read-out: LC50 MG_MID
PC-3 (Prostate cancer) = assay: NCI-60 screen (SRB, 48 h); settings: Homo sapiens; for GI50: PC-3

C=C(C)[C@@H]1CC[C@]2(C)[C@H](CC=C3[C@@H]4[C@@H](C)[C@H](C)CC[C@]4(CO)CC[C@]32C)[C@@]1(C)CCCN [Compound 19]
GI50 (UO-31 (Renal cancer)): 0.82 µM | IC (TGI) (UO-31 (Renal cancer); UO-31, 48 h, read-out: TGI): 2.24 µM | CC50 (UO-31 (Renal cancer); UO-31, read-out: LC50): 9.64 µM | GI50 (EKVX (NSC lung cancer)): 1.08 µM | IC (TGI) (EKVX (NSC lung cancer); 48 h, read-out: TGI): 2.94 µM | CC50 (EKVX (NSC lung cancer); read-out: LC50): 26.5 µM | IC (TGI) (NSC lung cancer subpanel): 5.16 µM | GI50 (NSC lung cancer subpanel): 1.84 µM | CC50 (NSC lung cancer subpanel): 27 µM | GI50 [1]: 0.82 µM | IC (TGI) [1]: 1.66 µM | CC50 [1]: 3.36 µM | GI50 (MCF7 (Breast cancer)): 0.83 µM | IC (TGI) (MCF7 (Breast cancer)): 1.73 µM | GI50 (KM12 (Colon cancer)): 0.91 µM | IC (TGI) (KM12 (Colon cancer)): 1.65 µM | CC50 (KM12 (Colon cancer); KM12, read-out: LC50): 3 µM | GI50 (BT-549 (Breast cancer); BT-549): 2.56 µM | IC (TGI) (BT-549 (Breast cancer); BT-549, 48 h): 9.23 µM | CC50 (BT-549 (Breast cancer); BT-549, read-out: LC50 (the source's name)): 23.3 µM | GI50 (RXF 393 (Renal cancer); RXF 393): 0.83 µM | IC (TGI) (RXF 393 (Renal cancer); RXF 393, 48 h, read-out: TGI): 1.59 µM | CC50 (RXF 393 (Renal cancer); RXF 393, read-out: LC50): 3.07 µM | GI50 (IGROV1 (Ovarian cancer)): 0.89 µM | IC (TGI) (IGROV1 (Ovarian cancer)): 1.67 µM | CC50 (IGROV1 (Ovarian cancer)): 3.14 µM | IC (TGI) (Breast cancer subpanel): 3.62 µM | GI50 (Breast cancer subpanel): 1.28 µM | CC50 (Breast cancer subpanel): 16.9 µM | GI50 (OVCAR-3 (Ovarian cancer)): 0.93 µM | IC (TGI) (OVCAR-3 (Ovarian cancer); OVCAR-3, 48 h, read-out: TGI): 1.79 µM | CC50 (OVCAR-3 (Ovarian cancer); OVCAR-3, read-out: LC50): 3.44 µM | IC (TGI) (Prostate cancer subpanel): 5.25 µM | GI50 (Prostate cancer subpanel): 1.43 µM | CC50 (Prostate cancer subpanel; read-out: LC50 MG_MID): 18.7 µM | GI50 (SNB-19 (CNS cancer)): 2.14 µM | IC (TGI) (SNB-19 (CNS cancer)): 8.11 µM | CC50 (SNB-19 (CNS cancer); SNB-19, read-out: LC50): 25 µM | GI50 (MOLT-4 (Leukemia)): 1.35 µM | IC (TGI) (MOLT-4 (Leukemia); MOLT-4, 48 h, read-out: TGI): 4.07 µM | CC50 (MOLT-4 (Leukemia); MOLT-4, read-out: LC50): 27.9 µM | GI50 [2]: 0.91 µM | IC (TGI) [2]: 1.71 µM | CC50 [2]: 3.19 µM | GI50 (SF-295 (CNS cancer)): 0.85 µM | IC (TGI) (SF-295 (CNS cancer)): 1.58 µM | CC50 (SF-295 (CNS cancer); SF-295, read-out: LC50): 2.94 µM | GI50 (SK-MEL-5 (Melanoma)): 0.91 µM | IC (TGI) (SK-MEL-5 (Melanoma)): 1.65 µM | CC50 (SK-MEL-5 (Melanoma)): 3 µM | GI50 [3]: 1.74 µM | IC (TGI) [3]: 6.38 µM | CC50 ([3]; read-out: LC50): 18.6 µM | GI50 (HL-60(TB) (Leukemia)): 1.03 µM | IC (TGI) (HL-60(TB) (Leukemia)): 2.27 µM | CC50 (HL-60(TB) (Leukemia); read-out: LC50 (the source's name)): 5 µM | IC (TGI) (Colon Cancer subpanel): 1.8 µM | GI50 (Colon Cancer subpanel): 0.9 µM | CC50 (Colon Cancer subpanel): 3.63 µM | GI50 (COLO 205 (Colon cancer)): 0.9 µM | IC (TGI) (COLO 205 (Colon cancer)): 1.94 µM | CC50 (COLO 205 (Colon cancer); COLO 205, read-out: LC50): 4.17 µM | GI50 (CAKI-1 (Renal cancer)): 1.69 µM | IC (TGI) (CAKI-1 (Renal cancer); CAKI-1, 48 h, read-out: TGI): 5.58 µM | CC50 (CAKI-1 (Renal cancer); CAKI-1, read-out: LC50): 17.9 µM | IC (TGI) (Renal Cancer subpanel): 4.63 µM | GI50 (Renal Cancer subpanel): 1.56 µM | CC50 (Renal Cancer subpanel): 13.3 µM | GI50 (PC-3 (Prostate cancer)): 1.65 µM | IC (TGI) (PC-3 (Prostate cancer); PC-3, 48 h, read-out: TGI): 7.48 µM | CC50 (PC-3 (Prostate cancer); PC-3, read-out: LC50): 26 µM

C[C@H]1[C@H](C)CC[C@]2(C(=O)Nc3ccc4ncccc4c3)CC[C@]3(C)C(=CC[C@@H]4[C@@]5(C)CCCNC(C)(C)[C@@H]5CC[C@]43C)[C@H]12 [Compound 14]
GI50 (UO-31 (Renal cancer)): 1.5 µM | GI50 (EKVX (NSC lung cancer)): 1.66 µM | IC (TGI) (NSC lung cancer subpanel): 3.36 µM | GI50 (NSC lung cancer subpanel): 1.78 µM | CC50 (NSC lung cancer subpanel): 7.53 µM | GI50 [1]: 1.74 µM | IC (TGI) [1]: 3.45 µM | CC50 [1]: 6.87 µM | GI50 (MCF7 (Breast cancer)): 1.56 µM | IC (TGI) (MCF7 (Breast cancer)): 3.25 µM | GI50 (KM12 (Colon cancer)): 1.89 µM | IC (TGI) (KM12 (Colon cancer)): 3.63 µM | GI50 (BT-549 (Breast cancer); BT-549): 1.84 µM | GI50 (IGROV1 (Ovarian cancer)): 1.7 µM | IC (TGI) (IGROV1 (Ovarian cancer)): 3.37 µM | CC50 (IGROV1 (Ovarian cancer)): 6.69 µM | IC (TGI) (Breast cancer subpanel): 3.44 µM | GI50 (Breast cancer subpanel): 1.76 µM | CC50 (Breast cancer subpanel): 6.87 µM | GI50 (OVCAR-3 (Ovarian cancer)): 1.81 µM | IC (TGI) (Prostate cancer subpanel): 3.28 µM | GI50 (Prostate cancer subpanel): 1.76 µM | GI50 (SNB-19 (CNS cancer)): 1.85 µM | IC (TGI) (SNB-19 (CNS cancer)): 3.4 µM | GI50 (MOLT-4 (Leukemia)): 1.42 µM | GI50 [2]: 1.94 µM | IC (TGI) [2]: 3.82 µM | CC50 [2]: 7.53 µM | GI50 (SF-295 (CNS cancer)): 1.65 µM | IC (TGI) (SF-295 (CNS cancer)): 3.17 µM | GI50 (SK-MEL-5 (Melanoma)): 1.85 µM | IC (TGI) (SK-MEL-5 (Melanoma)): 3.32 µM | CC50 (SK-MEL-5 (Melanoma)): 5.94 µM | GI50 [3]: 1.72 µM | IC (TGI) [3]: 3.11 µM | GI50 (HL-60(TB) (Leukemia)): 1.64 µM | IC (TGI) (HL-60(TB) (Leukemia)): 3.63 µM | IC (TGI) (Colon Cancer subpanel): 3.37 µM | GI50 (Colon Cancer subpanel): 1.66 µM | CC50 (Colon Cancer subpanel): 6.18 µM | GI50 (COLO 205 (Colon cancer)): 1.75 µM | IC (TGI) (COLO 205 (Colon cancer)): 3.59 µM | GI50 (CAKI-1 (Renal cancer)): 1.56 µM | IC (TGI) (Renal Cancer subpanel): 3.24 µM | GI50 (Renal Cancer subpanel): 1.66 µM | CC50 (Renal Cancer subpanel): 5.6 µM | GI50 (PC-3 (Prostate cancer)): 1.76 µM
